What was measured:
bedstraw = assay: Test B pre/postemergence bedstraw; assay type: in vivo, Galium aparine
How it was run: (§1)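 Response is a visual 0-to-10 score relative to untreated plants, where 0 means no effect and 10 means complete control, taken twelve to sixteen days after application. Treatments went onto soil at planting and onto foliage of 1- to 4-leaf plants, using a surfactant-containing non-phytotoxic solvent.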

blackgrass = assay: Test B pre/postemergence blackgrass; assay type: in vivo, Alopecurus myosuroides
How it was run: as §1

surinam grass = assay: Test B pre/postemergence surinam grass; assay type: in vivo, Brachiaria decumbens
How it was run: as §1

cocklebur = assay: Test B pre/postemergence cocklebur; assay type: in vivo, Xanthium strumarium
How it was run: as §1

corn = assay: Test B pre/postemergence corn; assay type: in vivo, Zea mays
How it was run: as §1

crabgrass = assay: Test B pre/postemergence crabgrass; assay type: in vivo, Digitaria sanguinalis
How it was run: as §1

giant foxtail = assay: Test B pre/postemergence giant foxtail; assay type: in vivo, Setaria faberii
How it was run: as §1

morningglory = assay: Test B pre/postemergence morningglory; assay type: in vivo, Ipomoea hederacea
How it was run: as §1

pigweed = assay: Test B pre/postemergence pigweed; assay type: in vivo, Amaranthus retroflexus
How it was run: as §1

rape = assay: Test B pre/postemergence rape; assay type: in vivo, Brassica napus
How it was run: as §1

soybean = assay: Test B pre/postemergence soybean; assay type: in vivo, Glycine max
How it was run: as §1

velvetleaf = assay: Test B pre/postemergence velvetleaf; assay type: in vivo, Abutilon theophrasti
How it was run: as §1

wheat = assay: Test B pre/postemergence wheat; assay type: in vivo, Triticum aestivum
How it was run: as §1

wild oat = assay: Test B pre/postemergence wild oat; assay type: in vivo, Avena fatua
How it was run: as §1

purple nutsedge = assay: Test B pre/postemergence purple nutsedge; assay type: in vivo, Cyperus rotundus
How it was run: as §1

[1] = Preemergence, Rate 62 g/ha, scale of 0 to 10 where 0 is no effect and 10 is complete control
[2] = Preemergence, Rate 250 g/ha, scale of 0 to 10 where 0 is no effect and 10 is complete control
[3] = Preemergence, Rate 500 g/ha, scale of 0 to 10 where 0 is no effect and 10 is complete control
[4] = Rate 62 g/ha, Postemergence, scale of 0 to 10 where 0 is no effect and 10 is complete control
[5] = Rate 125 g/ha, Postemergence, scale 0 to 10
[6] = Rate 125 g/ha, Preemergence, scale of 0 to 10 where 0 is no effect and 10 is complete control
[7] = Rate 500 g/ha, Postemergence, scale 0 to 10, 0 no effect, 10 complete control

Cc1nc(C)c(Cn2c(=O)on(C(=O)N(c3ccc(F)cc3)C(C)C)c2=O)s1 [Compound 232]
9: Crabgrass plant response rating (crabgrass; [2]) | Plant response rating, Giant foxtail (giant foxtail; [3])
4: Cocklebur plant response rating (cocklebur; [7]) | Redroot pigweed plant response rating (pigweed; [7]) | Plant response rating (0 to 10; 0 is no effect, 10 is complete control), Soybean (soybean; Rate 250 g/ha, Postemergence) | Soybean plant response rating (soybean; [7])
7: Blackgrass plant response rating (blackgrass; [7]) | Crabgrass plant response rating (crabgrass; [6]) | Plant response rating, Redroot pigweed (pigweed; [3])
6: Blackgrass plant response rating (blackgrass; [6]) | Plant response rating (0 to 10; 0 is no effect, 10 is complete control), Blackgrass (blackgrass; Rate 250 g/ha, Postemergence) | Giant foxtail plant response rating (giant foxtail; [1]) | Plant response rating (0 to 10; 0 is no effect, 10 is complete control), Redroot pigweed (pigweed; Rate 250 g/ha, Postemergence)
8: Blackgrass plant response rating (blackgrass; [2]) | Plant response rating, Blackgrass (blackgrass; [3]) | B. signalgrass plant response rating (surinam grass; [7]) | Giant foxtail plant response rating (giant foxtail; [2]) | Giant foxtail plant response rating (giant foxtail; [6]) | Morningglory plant response rating (morningglory; [5]) | Plant response rating (0 to 10; 0 is no effect, 10 is complete control), Morningglory (morningglory; Rate 250 g/ha, Postemergence) | Morningglory plant response rating (morningglory; [7]) | Plant response rating, Wild oats (wild oat; [3])
10: Plant response rating, Crabgrass (crabgrass; [3])
0: Bedstraw plant response rating (bedstraw; [1]) | Bedstraw plant response rating (bedstraw; [2]) | Plant response rating, Bedstraw (bedstraw; [3]) | Bedstraw plant response rating (bedstraw; [4]) | Bedstraw plant response rating (bedstraw; [5]) | Bedstraw plant response rating (bedstraw; [6]) | Blackgrass plant response rating (blackgrass; [4]) | B. signalgrass plant response rating (surinam grass; [1]) | B. signalgrass plant response rating (surinam grass; [4]) | B. signalgrass plant response rating (surinam grass; Rate 125 g/ha, Postemergence, scale 0 (no effect) to 10 (complete control)) | B. signalgrass plant response rating (surinam grass; [6]) | Cocklebur plant response rating (cocklebur; [1]) | Cocklebur plant response rating (cocklebur; [2]) | Plant response rating, Cocklebur (cocklebur; [3]) | Cocklebur plant response rating (cocklebur; [4]) | Cocklebur plant response rating (cocklebur; [6]) | Corn plant response rating (corn; [1]) | Corn plant response rating (corn; [2]) | Plant response rating, Corn (corn; [3]) | Corn plant response rating (corn; [4]) | Corn plant response rating (corn; [5]) | Corn plant response rating (corn; [6]) | Plant response rating (0 to 10; 0 is no effect, 10 is complete control), Corn (corn; Rate 250 g/ha, Postemergence) | Corn plant response rating (corn; [7]) | Crabgrass plant response rating (crabgrass; [4]) | Giant foxtail plant response rating (giant foxtail; [4]) | Giant foxtail plant response rating (giant foxtail; [5]) | Morningglory plant response rating (morningglory; [1]) | Morningglory plant response rating (morningglory; [2]) | Plant response rating, Morningglory (morningglory; [3]) | Morningglory plant response rating (morningglory; [6]) | Redroot pigweed plant response rating (pigweed; [1]) | Redroot pigweed plant response rating (pigweed; [6]) | Rape plant response rating (rape; [1]) | Rape plant response rating (rape; [2]) | Plant response rating, Rape (rape; [3]) | Rape plant response rating (rape; [4]) | Rape plant response rating (rape; [6]) | Soybean plant response rating (soybean; [1]) | Soybean plant response rating (soybean; [2]) | Plant response rating, Soybean (soybean; [3]) | Soybean plant response rating (soybean; [6]) | Velvetleaf plant response rating (velvetleaf; [1]) | Velvetleaf plant response rating (velvetleaf; [2]) | Plant response rating, Velvetleaf (velvetleaf; [3]) | Velvetleaf plant response rating (velvetleaf; [6]) | Wheat plant response rating (wheat; [1]) | Wheat plant response rating (wheat; [2]) | Plant response rating, Wheat (wheat; [3]) | Wheat plant response rating (wheat; [4]) | Wheat plant response rating (wheat; [5]) | Wheat plant response rating (wheat; [6]) | Plant response rating (0 to 10; 0 is no effect, 10 is complete control), Wheat (wheat; Rate 250 g/ha, Postemergence) | Wheat plant response rating (wheat; [7]) | Wild oats plant response rating (wild oat; [1]) | Wild oats plant response rating (wild oat; [4]) | Wild oats plant response rating (wild oat; [5]) | Wild oats plant response rating (wild oat; [6]) | Plant response rating (0 to 10; 0 is no effect, 10 is complete control), Wild oats (wild oat; Rate 250 g/ha, Postemergence) | Wild oats plant response rating (wild oat; [7]) | Nutsedge plant response rating (purple nutsedge; [1]) | Nutsedge plant response rating (purple nutsedge; [4]) | Nutsedge plant response rating (purple nutsedge; [5]) | Nutsedge plant response rating (purple nutsedge; [6]) | Plant response rating (0 to 10; 0 is no effect, 10 is complete control), Nutsedge (purple nutsedge; Rate 250 g/ha, Postemergence) | Nutsedge plant response rating (purple nutsedge; [7])
2: Plant response rating (0 to 10; 0 is no effect, 10 is complete control), Bedstraw (bedstraw; Rate 250 g/ha, Postemergence) | Bedstraw plant response rating (bedstraw; [7]) | Blackgrass plant response rating (blackgrass; [1]) | Blackgrass plant response rating (blackgrass; [5]) | Cocklebur plant response rating (cocklebur; [5]) | Plant response rating (0 to 10; 0 is no effect, 10 is complete control), Cocklebur (cocklebur; Rate 250 g/ha, Postemergence) | Crabgrass plant response rating (crabgrass; [7]) | Plant response rating (0 to 10; 0 is no effect, 10 is complete control), Giant foxtail (giant foxtail; Rate 250 g/ha, Postemergence) | Redroot pigweed plant response rating (pigweed; [4]) | Rape plant response rating (rape; [5]) | Plant response rating (0 to 10; 0 is no effect, 10 is complete control), Rape (rape; Rate 250 g/ha, Postemergence) | Rape plant response rating (rape; [7]) | Velvetleaf plant response rating (velvetleaf; [4]) | Velvetleaf plant response rating (velvetleaf; [5]) | Plant response rating (0 to 10; 0 is no effect, 10 is complete control), Velvetleaf (velvetleaf; Rate 250 g/ha, Postemergence)
5: Plant response rating, B. signalgrass (surinam grass; [3]) | Crabgrass plant response rating (crabgrass; [1]) | Redroot pigweed plant response rating (pigweed; [2])
1: B. signalgrass plant response rating (surinam grass; Preemergence, Rate 250 g/ha, scale 0 to 10, 0 is no effect, 10 is complete control) | Plant response rating (0 to 10; 0 is no effect, 10 is complete control), B. signalgrass (surinam grass; Rate 250 g/ha, Postemergence) | Crabgrass plant response rating (crabgrass; [5]) | Plant response rating (0 to 10; 0 is no effect, 10 is complete control), Crabgrass (crabgrass; Rate 250 g/ha, Postemergence)
3: Giant foxtail plant response rating (giant foxtail; [7]) | Morningglory plant response rating (morningglory; [4]) | Redroot pigweed plant response rating (pigweed; [5]) | Soybean plant response rating (soybean; [4]) | Soybean plant response rating (soybean; [5]) | Velvetleaf plant response rating (velvetleaf; [7]) | Wild oats plant response rating (wild oat; [2])
